# From US11331294B2, “Benzoquinone derivative E3330 in combination with chemotherapeutic agents for the treatment of bladder cancer” (Indiana University Research and Technology Corporation, priority 2007, dated 2022)
# Columns and labels:
# [1] = test system: UC3 cells; test: Methylene blue cell growth assay UC3; format: cell-based; conditions: Homo sapiens, read-out: cell growth-inhibitory IC50
# Method: (§1) FIGS. 31A & 31B. Treatment with APE1/Ref-1 inhibitors potently blocks bladder cancer cell proliferation and activated Caspase 3/7. […] The IC50 values for FIG. 31A were determined using the methylene blue assay, n=4. […] T24 and UC3 cells were treated with APX2009 and APX2014 at the IC50 and IC90 and monitored over time for activation of capsase 3/7 by an increase in red fluorescence. Time course graphs are shown in FIG. 31B and representative images at 48 hr are shown in FIG. 32A (described more fully below), n=3-4.
# (§2) FIGS. 36A-36H. […] In cytokine-induced T24 and UC3 cells NFκB-driven luciferase (FIG. 36A), STAT3-driven luciferase (FIG. 36B), and AP-1-driven luciferase (FIG. 36C) were quantified and normalized via Renilla following treatment with the corresponding cell growth-inhibitory IC50 concentrations. T24 cells were treated with APX2009 (8.5 μM) and APX2014 (6.5 μM), and UC3 cells were treated with APX2009 (6.1 μM) and APX2014 (4.6 μM) for 24 h. (*-p<0.05 APX treated vs vehicle, n=4). […] In the panels of FIGS. 36F & 36G, co-expression of survivin and APE1/Ref-1 was analyzed in superficial (FIG. 36F) and invasive human bladder tumors (FIG. 36G) in patients, and found nearly universal overlap of positivity in both in human samples. This was also true in cisplatin-refractory patients from the tissue microarray specimens (FIG. 36H). […]
# [2] = test system: T24 cells; test: Methylene blue cell growth assay T24; format: cell-based; conditions: Homo sapiens, T-24, read-out: cell growth-inhibitory IC50
# Method: as §1, §2
# [3] = test system: bladder cancer cells; test: BrdU incorporation assay in cultured cells; format: cell-based; conditions: IC50 concentration, 24 hours; control 11.2%±0.84
# Method: To determine the proliferation rate of cells in response to APE1/Ref-1 redox inhibitors, cells were grown in the culture conditions described above and treated with inhibitors as described above, in chamber slides. After 24 hours in culture with inhibitors or vehicle, all cells were treated with 3.1 μg/ml BrdU (in sterile PBS; 0.1%) for one hour. Cells were fixed and permeablized with 4% paraformaldehyde and stained for BrdU incorporation with the antibody and methodology described in the Roche BrdU labeling Kit, (Risch-Rotkreuz, Switzerland), using secondary antibodies. Positive cells were captured on a Leica 6000 fluorescent microscope and were quantified relative to Hoechst positive nuclei (total live cells).
# To further characterize this effect, it was analyzed whether this reduced cell number was due to decreases in proliferation, increases in apoptosis, or both.
# [4] = test system: SW780, T24, UC3 cell lines; test: Methylene blue cell growth assay, bladder cancer cell panel; format: cell-based, human
# Method: as §1
# Bladder cancer cell proliferation was inhibited and apoptosis was induced by potent, selective redox inhibitors of APE1/Ref-1.
# [5] = test system: RP-B-02 spheroids; test: 3D spheroid growth assay RP-B-02; format: cell-based, human; conditions: p<0.05
# Source text: (§3) RP-B-01 and RP-B-02 cells were resuspended in normal growth media containing 3% Reduced Growth Factor Matrigel (BD Biosciences) at a cell density of 1,500 and 3,000 cells/well, respectively and plated in ultra-low adherence 96-well plates (Corning).
# (§4) Spheroids were allowed to form and then treated on days 4, 8, and 12 following plating with media containing 5% serum, 3% Reduced Growth Factor Matrigel, and APE1/Ref-1 inhibitors. Vehicle control, DMSO, was less than 0.01% of the volume, and was equivalent in each well. On Day 15, Alamar blue reagent (LifeTechnologies) was added to each well (10 μL/well) and incubated for 24 hours.
# (§5) In order to mimic tumor growth more accurately in a relevant microenvironment and in a more robust model for predicting response to treatment, a three-dimensional (3D) culture model of patient-derived RP-B-01 and RP-B-02 bladder cancer cells was used. Both RP-B-01 and RP-B-02 cell lines are transitional cell carcinoma staged as T4bN1Mx and T2bN0Mx Grade III tumors, respectively.
# [6] = test system: survivin and Cyclin D1; test: Western blot of survival and proliferation proteins in cells; format: cell-based, human; conditions: immunoblot
# Method: (§6) FIGS. 36A-36H. […] In cytokine-induced T24 and UC3 cells NFκB-driven luciferase (FIG. 36A), STAT3-driven luciferase (FIG. 36B), and AP-1-driven luciferase (FIG. 36C) were quantified and normalized via Renilla following treatment with the corresponding cell growth-inhibitory IC50 concentrations. T24 cells were treated with APX2009 (8.5 μM) and APX2014 (6.5 μM), and UC3 cells were treated with APX2009 (6.1 μM) and APX2014 (4.6 μM) for 24 h. (*-p<0.05 APX treated vs vehicle, n=4). […] In the panels of FIGS. 36F & 36G, co-expression of survivin and APE1/Ref-1 was analyzed in superficial (FIG. 36F) and invasive human bladder tumors (FIG. 36G) in patients, and found nearly universal overlap of positivity in both in human samples. This was also true in cisplatin-refractory patients from the tissue microarray specimens (FIG. 36H).
# Whole cell extracts were prepared using RIPA (radioimmunoprecipitation) buffer containing protein inhibitors (1:100 PMSF, 1:100 orthovanadate and 1:100 protease inhibitor). Total protein concentration was determined via Lowry or BCA assay. 10-50 μg/well of each lysate was separated by SDS-PAGE using a 12% SDS-polyacrylamide gel. Blots were blocked with 5% nonfat dry milk in 1×TBS for 1 h and incubated overnight with primary antibodies to either APE1/Ref-1 (1:1000 dilution, Novus, NB-100-116), survivin (1:1000, Cell Signaling), Cyclin D1 (1:500, Abcam), PARP-1 (1:1000, Cell Signaling) or GAPDH (1:5000, Cell Signaling). After blots were washed three-six times with TBS-Tween, blots were incubated with HRP-conjugated secondary mouse antibodies (1:5000, Pierce). After washing three-six times with TBS-Tween, blots were visualized by enhanced chemiluminescence (West Pico/West Femto, Pierce).
# For further confirmation of a decrease in NFκB and STAT3 transcriptional activity, levels of survivin and Cyclin D1 were examined Both survivin and Cyclin D1 are known to be downstream targets of NFκB and STAT3. […] However, unlike APE1/Ref-1, survivin expression was primarily nuclear in both urothelial confined and invasive lesions.
# [7] = test system: RP-B-01 spheroids; test: 3D spheroid growth assay RP-B-01; format: cell-based, human; conditions: p<0.01
# Source text: as §3, §4, §5
# [8] = test system: RP-B-01, RP-B-02 and T24 cell lines; test: Alamar blue combination study with cisplatin; format: cell-based, human; conditions: combined with increasing concentrations of cisplatin, 72 h
# Method: FIGS. 30A-30C. […] RP-B-01, RP-B-02, and T24 cell lines were treated with increasing concentrations of cisplatin in combination with a single dose of either APX2009 or APX2014 as indicated (n=3±SE). Cell proliferation was normalized to Saline control and expressed as Fold Change. Combination index (CI) values calculated with Compusyn for combination of APX inhibitors and cisplatin. CI values indicated mainly additivity (0.95-1.2) to synergy (0.8-0.94).
# Bladder cancer cell lines (BLCAb001 (RP-B-01) and BLCAb002 (RP-B-02) maintained in RPMI growth medium with 10% FBS were plated at 4,000 cells/well in poly-D-lysine treated 96-well clear bottom black plates and grown overnight in 5% CO2 at 37° C. Cells in monolayer were then treated with increasing concentrations of redox-specific inhibitor APX3330, APX2014 or APX2009 and serially diluted 1:2 in a 5-point dose scheme. For combination studies, cells were treated with both cisplatin and APX compounds to determine efficacy. After 72 hours, fresh RPMI medium with 5% FBS was exchanged, and a fluorescent metabolic indicator, Alamar Blue was added to each well at 10% final concentration. After a 4 hour incubation, plates were read on a Synergy H4 (Bio-Tek) plate reader. […]
# APE1/Ref-1 inhibition enhances cisplatin's therapeutic effect. […] Cell proliferation was assessed using Alamar blue 72 h after drug treatment.
# [9] = test system: UC3 and T24 cells; test: Incucyte caspase-3/7 apoptosis assay; format: cell-based, human; conditions: red fluorescence over time
# Method: UC3 and T24 cells were plated in 96-well plates at 3,500 cell/well and allowed to attach overnight. Increasing amounts of APX2009 or APX2014 were added to each well along with 1 μM of the caspase reagent (Caspase-3/7 Red, Essen Bioscience) and then the cells were allowed to recover for 2 hours prior to beginning imaging with the Incucyte system (Essen Bioscience). Each well was imaged for phase contrast as well as red fluorescence every 2 hours for 96 hours. The Incucyte software generated movies of the cells following treatment as well as real-time imaging data with red fluorescence normalized to the percent confluency of the well.
# To assay for caspase-3/7 mediated apoptosis, the increase in red fluorescence was analyzed over time following the addition of APX2009 and APX2014.
# [10] = test system: NFκB; test: NFκB-driven luciferase reporter; format: cell-based, human; conditions: T24 and UC3 cells, IC50 concentration, 24 h
# Method: as §6
# (§7) The transcriptional activity of NFκB, STAT3, and AP-1 is under redox control by APE1/Ref-1. Therefore, NFκB, STAT3, or AP-1 transcriptional activity was quantified following treatment with APE1/Ref-1 redox inhibitors (FIGS. 36A-36C).
# [11] = test system: STAT3; test: STAT3-driven luciferase reporter; format: cell-based, human; conditions: T24 and UC3 cells induced with IL-6, IC50 concentration, 24 h
# Method: as §6, §7
# [12] = test system: RP-B-02 cells; test: Alamar blue monolayer assay RP-B-02; format: cell-based, human; conditions: 72 h
# Method: (§8) Bladder cancer cell lines (BLCAb001 (RP-B-01) and BLCAb002 (RP-B-02) maintained in RPMI growth medium with 10% FBS were plated at 4,000 cells/well in poly-D-lysine treated 96-well clear bottom black plates and grown overnight in 5% CO2 at 37° C. Cells in monolayer were then treated with increasing concentrations of redox-specific inhibitor APX3330, APX2014 or APX2009 and serially diluted 1:2 in a 5-point dose scheme. For combination studies, cells were treated with both cisplatin and APX compounds to determine efficacy. After 72 hours, fresh RPMI medium with 5% FBS was exchanged, and a fluorescent metabolic indicator, Alamar Blue was added to each well at 10% final concentration. After a 4 hour incubation, plates were read on a Synergy H4 (Bio-Tek) plate reader. For each drug dose, background was subtracted and then further normalized to media alone.
# (§9) APE1/Ref-1 inhibition enhances cisplatin's therapeutic effect. Cisplatin is the standard of care for bladder cancer, but many patients' tumors are refractory to this therapy. […] To determine this, PDX lines, RP-B-01 and RP-B-02, as well as established cell line, T24, were treated with increasing concentrations of cisplatin in combination with APX compounds (FIGS. 30A-30C). Cell proliferation was assessed using Alamar blue 72 h after drug treatment.
# [13] = test system: RP-B-01 cells; test: Alamar blue monolayer assay RP-B-01; format: cell-based, human
# Method: as §8, §9
# [14] = test system: endothelial cells; test: In vitro tube formation assay; format: cell-based; conditions: dose dependent
# Source text: In vitro tube formation assay.
# [15] = test system: subretinal neovascularization (SNV) in vldlr-/- retina; test: SNV in vldlr-/- knockout mice assay; format: in vivo; conditions: antibody injection
# Method: SNV in vldlr−/− knockout mice assay. […] Experiments were carried out in very-low-density lipoprotein receptor (vldr) knockout mice to determine the effect of APX3330 on inhibition of SNV development in the vldlr−/− mutant. Each animal received a single intravitreal injection of 1 μl volume of BSS as a vehicle control and the fellow eye received 1 μl of […] APX3330. The final concentration of APX3330 was equivalent to approximately 20 μM in the retina. Quantitative measurement of SNV was carried out one week after the treatment in the whole mount retina after lectin-FITC staining. […] The apparent increase of SNV after antibody injection could be due to foreign protein triggered immune response which has been reported before (Tator et al., 2008). APX3330 reduced the number of SNV at a statistically significant level (p<0.01 in paired t-test). […] The Ape1/Ref-1 inhibitor offers a new approach to control angiogenesis for advanced macular degeneration (AMD) treatment.
compound,measurement,setting,value
CCC/C(=C\C1=C(OC)C(=O)c2ccccc2C1=O)C(=O)NOC [APX2014],IC50,[1],4.6 µM
same,IC50,[2],6.5 µM
same,BrdU-positive cells,[3],7.2%±0.49
same,fold lower IC50 than APX3330,[4],11 fold
same,potency in RP-B-02 cells in 3D culture relative to APX3330,[5],more potent in the RP-B-02 cells than parent compound APX3330
same,"expression of c-Myc, Bcl-2, Bcl-XL",[6],No change in expression
same,expression of survivin and Cyclin D1,[6],significantly down-regulated
same,relative sensitivity of RP-B-01 cells in 3D culture,[7],significantly more sensitive to APX2014 than APX2009
same,cellular proliferation when combined with cisplatin,[8],further reduction in cellular proliferation
same,caspase-3/7 activation,[9],dose-dependent increase in caspase activation
same,NFκB transcriptional activity,[10],reduced the transcriptional activity of NFκB and STAT3
same,STAT3 transcriptional activity,[11],reduced the transcriptional activity of NFκB and STAT3
N.N.[Cl][Pt][Cl] [cisplatin],IC50,[12],0.5 µM
same,resistance of RP-B-01 relative to RP-B-02 cells,[13],at least 3 fold
same,IC50,"[13]; RP-B-01 cells, 72 h",1.44 µM
AVASTIN®: VEGF antibody [reference compound],formation of blood-vessel-like tubules,[14],prevented formation of blood-vessel-like tubules
same,inhibition to the number of SNV,[15],neither AVASTIN® (VEGF antibody) nor bFGF antibody treatment showed any sign of inhibition
